This is an account of results in US20180353501A1 (Arvinas, Inc., priority 2017, published 2018).

In this assay the target is T1, FLAG-p38δ (Homo sapiens, UniProt O15264).
T1 construct: expressed in transfected cells; host or cells: HeLa cells, transient transfection with Lipofectamine 2000
T1 sequence (O15264 1-365): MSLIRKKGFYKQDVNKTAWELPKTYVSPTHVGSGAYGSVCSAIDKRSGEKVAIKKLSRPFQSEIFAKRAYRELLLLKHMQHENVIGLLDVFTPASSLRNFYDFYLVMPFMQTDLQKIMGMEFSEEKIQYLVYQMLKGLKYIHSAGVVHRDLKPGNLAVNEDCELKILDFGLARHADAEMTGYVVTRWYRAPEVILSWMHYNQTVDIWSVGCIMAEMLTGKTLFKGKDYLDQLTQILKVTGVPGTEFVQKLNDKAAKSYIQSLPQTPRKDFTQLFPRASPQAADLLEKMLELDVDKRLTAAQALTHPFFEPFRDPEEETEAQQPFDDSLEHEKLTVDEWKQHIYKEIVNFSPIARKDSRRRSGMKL
The assay can be described thus: Ubiquitination assay, HeLa cells co-transfected with HA-Ub and FLAG-p38δ. It is filed as cell-based. The following applies: 1 μM. The text has this:
FIGS. 15A, 15B, and 15C. Differential p38δ:PROTAC:VHL ternary complex affinities result in distinct cellular ubiquitination outcomes. (A) Both exemplary compound 50 and 46 pull-down p38δ in vitro, however compound 46 maintains ternary complex at lower concentrations. As in FIG. 14A, GST-tagged VBC was used as a bait to trap recombinant p38δ in the presence of vehicle (DMSO) or the indicated concentrations of compound 50 or 46. The rightmost lane represents a 1:25 dilution of initial input protein used in each pull-down. […] Samples were assessed by western blot and CUL2 and α-tubulin serve as positive and negative GST-VBC immunoprecipitation controls, respectively. […] FLAGimmunoprecipitated lysates were separated by SDS-PAGE and assessed via western blots detecting HA (Ub). […]
HeLa cells (2×10^6) were seeded into 10 cm dishes and allowed to adhere overnight. […] Lysates were spun down at 14,000×g at 4° C. for 20 minutes and protein content was measured by Pierce BCA Protein Assay (ThermoFisher Scientific). […] Immunoprecipitated protein was eluted off of the beads by heating at 95° C. for 5 minutes and the supernatant was run on an SDS-PAGE gel and evaluated for the presence of immunoprecipitated FLAG-tagged proteins (anti-FLAG M2, Sigma #F1804), as well as ubiquitinated FLAG-tagged proteins (anti-HA-tag (6E2), CST #2367). […]

Take `COc1cc2c(Oc3ccc(NC(=O)C4(C(=O)Nc5ccc(F)cc5)CC4)cc3F)ccnc2cc1OCCOCCOCCOc1cc(-c2scnc2C)ccc1CNC(=O)[C@@H]1C[C@@H](O)CN1C(=O)[C@H](C(C)C)N1Cc2ccccc2C1=O` [compound 46]: the “ubiquitination of FLAG-immunoprecipitated p38δ” value was “levels of ubiquitination of FLAG-immunoprecipitated p38δ greater than control cells”.
As to `COc1cc2c(Oc3ccc(NC(=O)C4(C(=O)Nc5ccc(F)cc5)CC4)cc3F)ccnc2cc1OCCCCOCCCCOCC(=O)N[C@H](C(=O)N1C[C@H](O)C[C@H]1C(=O)NCc1ccc(-c2scnc2C)cc1)C(C)(C)C` [compound 50, N-(3-fluoro-4-((7-(4-(4-(2-(((S)-1-((2S,4R)-4-hydroxy-2-((4-(4-methylthiazol-5-yl)benzyl)carbamoyl)pyrrolidin-1-yl)-3,3-dimethyl-1-oxobutan-2-yl)amino)-2-oxoethoxy)butoxy)buto-xy)-6-methoxyquinolin-4-yl)oxy)phenyl)-N-(4-fluorophenyl)cyclopropane-1,1-dicarboxa-mide], the “ubiquitination of FLAG-immunoprecipitated p38δ” value is “far less abundant”.
